Row | melting point | Compound
1 | 138 to 139 °C | COC(=O)c1ccc(-c2nc(-c3ccc(OC(F)(F)F)cc3)cs2)cc1 [Example 41, methyl 4-[4-(4-trifluoromethoxyphenyl)-2-thiazolyl]benzoate]
2 | 141 to 142 °C | COC(=O)c1ccc(-c2nc(-c3c(F)c(F)c(F)c(F)c3F)cs2)cc1 [Example 42, methyl 4-[4-(2,3,4,5,6-pentafluorophenyl)-2-thiazolyl]benzoate]
3 | 150 to 151 °C | COC(=O)c1ccc(-c2nc(-c3cccc(Cl)c3)cs2)cc1 [Example 43, methyl 4-[4-(3-chlorophenyl)-2-thiazolyl]benzoate]
4 | 142 to 143 °C | COC(=O)c1cccc(-c2nc(-c3ccc(C(F)(F)F)cc3)cs2)c1 [Example 44, methyl 3-[4-(4-trifluoromethylphenyl)-2-thiazolyl]benzoate]
5 | 105 to 106 °C | COC(=O)c1cccc(-c2nc(-c3cccc(C(F)(F)F)c3)cs2)c1 [Example 45, methyl 3-[4-(3-trifluoromethylphenyl)-2-thiazolyl]benzoate]
6 | 121 to 122 °C | COC(=O)c1cccc(-c2nc(-c3ccc(F)cc3F)cs2)c1 [Example 46, methyl 3-[4-(2,4-difluorophenyl)-2-thiazolyl]benzoate]
7 | 108 to 109 °C | COC(=O)c1cccc(-c2nc(-c3ccc(OC)cc3)cs2)c1 [Example 47, methyl 3-[4-(4-methoxyphenyl)-2-thiazolyl]benzoate]
8 | 100 to 101 °C | CCOC(=O)c1cccc(-c2nc(-c3cc(C)oc3C)cs2)c1 [Example 49, ethyl 3-[4-(2,5-dimethyl-3-furyl)-2-thiazolyl]benzoate]
9 | 84 to 85 °C | COC(=O)c1cccc(-c2nc(-c3cccc(OC(F)(F)F)c3)cs2)c1 [Example 50, methyl 3-[4-(3-trifluoromethoxyphenyl)-2-thiazolyl]benzoate]
10 | 283 to 284 °C | O=C(O)c1ccc(-c2nc(-c3ccc(Cl)s3)cs2)cc1 [Example 53, 4-[4-(5-chloro-2-thienyl)-2-thiazolyl]benzoic acid]
11 | > 300 °C | O=C(O)c1ccc(-c2csc(-c3cccnc3)n2)cc1 [Example 54, 4-[2-(3-pyridyl)-4-thiazolyl]benzoic acid]
12 | 289 to 290 °C | Cc1ccc(-c2csc(-c3ccc(C(=O)O)cc3)n2)cc1 [Example 56, 4-[4-(4-methylphenyl)-2-thiazolyl]benzoic acid]
13 | 303 to 304 °C | O=C(O)c1ccc(-c2nc(-c3cccnc3)cs2)cc1 [Example 57, 4-[4-(3-pyridyl)-2-thiazolyl]benzoic acid]
14 | > 300 °C | O=C(O)c1ccc(-c2nc(-c3ccncc3)cs2)cc1 [Example 58, 4-[4-(4-pyridyl)-2-thiazolyl]benzoic acid]
15 | > 300 °C | O=C(O)c1ccc(-c2csc(-c3ccncc3)n2)cc1 [Example 59, 4-[2-(4-pyridyl)-4-thiazolyl]benzoic acid]
16 | 225 to 227 °C | O=C(O)c1ccc(-c2nc(-c3ccccc3C(F)(F)F)cs2)cc1 [Example 60, 4-[4-(2-trifluoromethylphenyl)-2-thiazolyl]benzoic acid]
17 | > 300 °C | O=C(O)c1ccc(-c2nc(-c3ccccn3)cs2)cc1 [Example 61, 4-[4-(2-pyridyl)-2-thiazolyl]benzoic acid]
18 | 233 to 234 °C | O=C(O)c1ccc(-c2nc(-c3cccc(OC(F)(F)F)c3)cs2)cc1 [Example 63, 4-[4-(3-trifluoromethoxylphenyl)-2-thiazolyl]benzoic acid]
19 | 273 to 274 °C | O=C(O)c1ccc(-c2nc(-c3c(F)c(F)c(F)c(F)c3F)cs2)cc1 [Example 65, 4-[4-(2,3,4,5,6-pentafluorophenyl)-2-thiazolyl]benzoic acid]
20 | 230 to 231 °C | O=C(O)c1cccc(-c2nc(-c3ccc(C(F)(F)F)cc3)cs2)c1 [Example 67, 3-[4-(4-trifluoromethylphenyl)-2-thiazolyl]benzoic acid]
21 | 229 to 230 °C | O=C(O)c1cccc(-c2nc(-c3cccc(C(F)(F)F)c3)cs2)c1 [Example 68, 3-[4-(3-trifluoromethylphenyl)-2-thiazolyl]benzoic acid]
22 | 255 to 256 °C | O=C(O)c1cccc(-c2nc(-c3ccc(F)cc3F)cs2)c1 [Example 69, 3-[4-(2,4-difluorophenyl)-2-thiazolyl]benzoic acid]
23 | 236 to 238 °C | COc1ccc(-c2csc(-c3cccc(C(=O)O)c3)n2)cc1 [Example 70, 3-[4-(4-methoxyphenyl)-2-thiazolyl]benzoic acid]
24 | 255 to 256 °C | O=C(O)c1cccc(-c2nc(-c3ccc(F)c(F)c3)cs2)c1 [Example 71, 3-[4-(3,4-difluorophenyl)-2-thiazolyl]benzoic acid]
25 | 114 to 115 °C | CCOC(=O)c1cccc(-c2nc(-c3ccc(C)c(C)c3)cs2)c1 [Example 74, ethyl 3-[4-(3,4-dimethylphenyl)-2-thiazolyl]benzoate]
26 | 206 to 207 °C | COC(=O)c1ccc(-c2nc(-c3ccc(Br)cc3)cs2)cc1 [Example 75, methyl 4-[4-(4-bromophenyl)-2-thiazolyl]benzoate]

Row | melting point | Compound
27 | 147 to 148 °C | CCOC(=O)c1cccc(-c2nc(-c3ccc(C)c(C)c3)cs2)c1 [Example 76, ethyl 3-[4-(3,4-dimethylphenyl)-2-thiazolyl]-benzoate]
28 | 103 to 105 °C | COC(=O)c1ccc(-c2nc(-c3cc(C)oc3C)cs2)cc1 [Example 77, methyl 4-[4-(2,5-dimethyl-3-furyl)-2-thiazolyl]benzoate]
29 | 115 to 116 °C | CCOC(=O)c1cccc(-c2nc(-c3cc(C)sc3C)cs2)c1 [Example 78, ethyl 3-[4-(2,5-dimethyl-3-thienyl)-2-thiazolyl]benzoate]
30 | 109 to 110 °C | COC(=O)c1ccc(-c2nc(-c3cc(C)sc3C)cs2)cc1 [Example 79, methyl 4-[4-(2,5-dimethyl-3-thienyl)-2-thiazolyl]benzoate]
31 | 149 to 150 °C | COC(=O)c1ccc(-c2nc(-c3cc(Cl)sc3Cl)cs2)cc1 [Example 80, methyl 4-[4-(2,5-dichloro-3-thienyl)-2-thiazolyl]benzoate]
32 | 125 to 126 °C | CCOC(=O)c1cccc(-c2nc(-c3cc(Cl)sc3Cl)cs2)c1 [Example 81, ethyl 3-[4-(2,5-dichloro-3-thienyl)-2-thiazolyl]benzoate]
33 | 108 to 110 °C | CCOC(=O)c1cccc(-c2nc(-c3ccc(OCC)cc3)cs2)c1 [Example 82, ethyl 3-[4-(4-ethoxyphenyl)-2-thiazolyl]benzoate]
34 | 192 to 193 °C | CCOc1ccc(-c2csc(-c3cccc(C(=O)OC)c3)n2)cc1 [Example 83, methyl 3-[4-(4-ethoxyphenyl)-2-thiazolyl]benzoate]
35 | 96 to 97 °C | CCOC(=O)c1cccc(-c2nc(-c3ccc(C(C)(C)C)cc3)cs2)c1 [Example 84, ethyl 3-[4-(4-t-butylphenyl)-2-thiazolyl]benzoate]
36 | 154 to 155 °C | COC(=O)c1ccc(-c2nc(-c3ccc(C(C)(C)C)cc3)cs2)cc1 [Example 85, methyl 4-[4-(4-t-butylphenyl)-2-thiazolyl]benzoate]
37 | 91 to 92 °C | CCOC(=O)c1cccc(-c2nc(-c3ccc(C(C)C)cc3)cs2)c1 [Example 86, ethyl 3-[4-(4-isopropylphenyl)-2-thiazolyl]benzoate]
38 | 134 to 135 °C | COC(=O)c1ccc(-c2nc(-c3ccc(C(C)C)cc3)cs2)cc1 [Example 87, methyl 4-[4-(4-isopropylphenyl)-2-thiazolyl]benzoate]
39 | 235 to 236 °C | Cc1ccc(-c2csc(-c3cccc(C(=O)O)c3)n2)cc1C [Example 88, 3-[4-(3,4-dimethylphenyl)-2-thiazolyl]benzoic acid]
40 | > 300 °C | O=C(O)c1ccc(-c2nc(-c3ccc(Br)cc3)cs2)cc1 [Example 89, 4-[4-(4-bromophenyl)-2-thiazolyl]benzoic acid]
41 | 261 to 262 °C | Cc1ccc(-c2csc(-c3ccc(C(=O)O)cc3)n2)cc1C [Example 90, 4-[4-(3,4-dimethylphenyl)-2-thiazolyl]benzoic acid]
42 | 264 to 265 °C | Cc1cc(-c2csc(-c3ccc(C(=O)O)cc3)n2)c(C)o1 [Example 91, 4-[4-(2,5-dimethyl-3-furyl)-2-thiazolyl]benzoic acid]
43 | 155 to 156 °C | Cc1cc(-c2csc(-c3cccc(C(=O)O)c3)n2)c(C)s1 [Example 92, 3-[4-(2,5-dimethyl-3-thienyl)-2-thiazolyl]benzoic acid]
44 | 239 to 240 °C | Cc1cc(-c2csc(-c3ccc(C(=O)O)cc3)n2)c(C)s1 [Example 93, 4-[4-(2,5-dimethyl-3-thienyl)-2-thiazolyl]benzoic acid]
45 | 266 to 267 °C | O=C(O)c1ccc(-c2nc(-c3cc(Cl)sc3Cl)cs2)cc1 [Example 94, 4-[4-(2,5-dichloro-3-thienyl)-2-thiazolyl]benzoic acid]
46 | 250 to 251 °C | CC(C)(C)c1ccc(-c2csc(-c3cccc(C(=O)O)c3)n2)cc1 [Example 98, 3-[4-(4-t-butylphenyl)-2-thiazolyl]benzoic acid]
47 | 263 to 265 °C | CCCCc1ccc(-c2csc(-c3ccc(C(=O)O)cc3)n2)cc1 [Example 99, 4-[4-(4-butylphenyl)-2-thiazolyl]benzoic acid]
48 | 257 to 258 °C | CC(C)c1ccc(-c2csc(-c3ccc(C(=O)O)cc3)n2)cc1 [Example 101, 4-[4-(4-isopropylphenyl)-2-thiazolyl]benzoic acid]
49 | 72 to 73 °C | CCOC(=O)c1ccc(-c2csc(-c3ccccc3)n2)cc1 [Example 102, ethyl 4-(2-phenyl-4-thiazolyl]benzoate]
50 | 105 to 106 °C | CCOC(=O)c1ccc(-c2csc(-c3ccc(Cl)cc3)n2)cc1 [Example 103, ethyl 4-[2-(4-chlorophenyl)-4-thiazolyl)benzoate]
51 | 163 to 164 °C | CCOC(=O)c1ccc(-c2csc(-c3ccc(C(F)(F)F)cc3)n2)cc1 [Example 104, ethyl 4-[2-(4-trifluoromethylphenyl)-4-thiazolyl)benzoate]
